Assay [1] relates to methicillin-resistant S. aureus standard strain USA300. Nature of the assay: Neutropenic mouse thigh infection model. Format: in vivo. The conditions noted are these: neutropenic BALB/c mice, 300 μg i.p. at 2 h postinfection. As to the method: Female BALB/c mice were used to construct a neutropenic murine thigh infection model as previously published ([48][–][50]). Briefly, mice (n = 9/group) were rendered neutropenic by consecutive intraperitoneal injections of 150 and 100 mg/kg of body weight cyclophosphamide at 4 and 1 day before bacterial injection ([51]). An S. aureus USA300 inoculum (~1.5 × 10^6 CFU/mL) was prepared by diluting logarithmic phase bacteria with fresh MHB. Each mouse was infected by intramuscular injection of 0.1 mL of the inoculum (~1.5 × 10^5 CFU) into the right thigh muscles. At 2 h postinfection, 0.1 mL of lcCCL28-25 peptide (300 μg) or vancomycin hydrochloride (300 μg, 15 mg/kg) was administered by intraperitoneal injection. The control group was injected with an equal volume of PBS. Untreated control mice were sacrificed at the start of treatment to establish the baseline bacterial burden. Mice in the three treatment groups (PBS, vancomycin, and lcCCL28-25) were sacrificed at 48 h postinfection. Their right thighs were aseptically harvested, placed in sterile saline and homogenized using a Bioprep-6 homogenizer (Allsheng, Hangzhou, China). After being serially diluted to 1:10 in sterile saline, 100-μL amounts of tissue suspensions at various concentrations were plated on LB agar to determine bacterial counts after incubation at 37°C for 24 h.

In assay [2] the test system is S. aureus ATCC 25923 cells. Nature of the assay: Scanning and transmission electron microscopy. In kind it is cell-based, Staphylococcus aureus. The conditions noted are these: S. aureus ATCC 25923, 5 μg/mL, 15 min. On the procedure: E. coli ATCC 25922 and S. aureus ATCC 25923 cells were cultured and coincubated with or without lcCCL28-25 as described above for fluorescence microscopy.
For scanning electron microscopy (SEM), bacterial cells were fixed with 2.5% glutaraldehyde in PBS (pH 7.35) and attached to 12-mm cover glasses by centrifugation at 75 × g for 6 min using a Cytospin 2 centrifuge (Thermo Fisher Scientific, Schwerte, Germany). Then, cover glasses with attached bacteria were postfixed in 1% aqueous OsO4 for 30 min, dehydrated in a sequence of increasing ethanol concentrations (70%, 80%, and 100%), and critical point dried in a CPD030 (Leica Microsystems, Vienna, Austria). Next, dried samples were mounted on aluminum stubs using conductive carbon tabs, coated with 4 nm of platinum in a CCU-010 sputtering device (Safematic, Bad Ragaz, Switzerland), and imaged by a Supra 50 VP SEM at an acceleration voltage of 2 kV using the in-lens secondary electron detector (Zeiss, Oberkochen, Germany) ([53]).
For transmission electron microscopy (TEM), bacterial cells were obtained by centrifugation after overnight fixation in 2.5% glutaraldehyde (pH 7.35, in PBS) at 4°C. […]

Residues, ends and D or L forms follow the SMILES beside them.

Consider `CSCC[C@H](NC(=O)[C@H](Cc1c[nH]c2ccccc12)NC(=O)[C@H](CCCCN)NC(=O)[C@@H]1CCCN1C(=O)[C@H](Cc1c[nH]cn1)NC(=O)[C@H](C)N)C(=O)N[C@@H](CCC(=O)O)C(=O)N[C@H](C(=O)N[C@H](C(=O)N[C@@H](CCCNC(=N)N)C(=O)N[C@@H](CO)C(=O)N[C@@H](CCCNC(=N)N)C(=O)N[C@@H](CCC(N)=O)C(=O)N[C@@H](CCCNC(=N)N)C(=O)N[C@@H](CCCCN)C(=O)N[C@@H](CCCCN)C(=O)N[C@@H](CCCCN)C(=O)N[C@@H](Cc1c[nH]cn1)C(=O)N[C@@H](CC(N)=O)C(=O)N[C@@H](CCCCN)C(=O)N[C@@H](CCCNC(=N)N)C(=O)N[C@@H](CCCNC(=N)N)C(=O)N[C@@H](C)C(=O)N[C@H](C(=O)N[C@@H](Cc1ccc(O)cc1)C(=O)O)[C@@H](C)O)C(C)C)C(C)C` [lcCCL28-25] (H-AHPKWMEVVRSRQRKKKHNKRRATY-OH; N-terminus and C-terminus assumed), for which the “reduction in average bacterial load in thighs versus control group” value in assay [1] (S. aureus USA300 i.m., 48 h postinfection) is given as 0.86 log10 CFU/g. Also, the “mice that died after 48 h of infection” value in assay [1] (n = 9/group, three died in PBS group) was “one”. Moreover, the “membrane structure (TEM)” value in assay [2] is on record as “significant alterations in membrane structure”.

The values above are taken from paper PMC9241943, “LcCCL28-25, Derived from Piscine Chemokine, Exhibits Antimicrobial Activity against Gram-Negative and Gram-Positive Bacteria In Vitro and In Vivo” (Microbiology Spectrum, 2022).
